# Source: PMC4263960 (Pediatric blood & cancer, 2013)
# Columns and labels:
# Set-up in all cases: species or system mice
# [1] = tested on: CHLA258 Ewing xenograft; assay: PPTP in vivo xenograft testing, CHLA258
# [2] = tested on: Rh36 EMB rhabdomyosarcoma xenograft; assay: PPTP in vivo xenograft testing, Rh36
# [3] = tested on: BT-41 ependymoma xenograft; assay: PPTP in vivo xenograft testing, BT-41
# [4] = tested on: GBM2 glioblastoma xenograft; assay: PPTP in vivo xenograft testing, GBM2
# [5] = tested on: BT-39 glioblastoma xenograft; assay: PPTP in vivo xenograft testing, BT-39
# [6] = tested on: NB-1691 neuroblastoma xenograft; assay: PPTP in vivo xenograft testing, NB-1691
# [7] = tested on: OS-1 osteosarcoma xenograft; assay: PPTP in vivo xenograft testing, OS-1
# [8] = tested on: OS-2 osteosarcoma xenograft; assay: PPTP in vivo xenograft testing, OS-2
# [9] = tested on: ALL-2 ALL B-precursor xenograft; assay: PPTP in vivo xenograft testing, ALL-2
# [10] = tested on: ALL-4 ALL B-precursor xenograft; assay: PPTP in vivo xenograft testing, ALL-4
# [11] = tested on: MLL-7 tertiary infant precursor B-ALL xenograft; assay: PPTP in vivo xenograft testing, MLL-7
# [12] = 1 mg/kg IP Q4Dx3 repeated at Day 21
# [13] = 1.5 mg/kg IP Q4Dx3 repeated at Day 21
smiles,measurement,setting,value
C=C1C[C@@H]2CC[C@@]34C[C@H]5O[C@H]6[C@@H](O3)[C@H]3O[C@H](CC[C@@H]3O[C@H]6[C@H]5O4)CC(=O)C[C@@H]3[C@@H](OC)[C@@H](C[C@H](O)CN)O[C@H]3C[C@H]3O[C@@H](CC[C@@H]1O2)C[C@@H](C)C3=C [Eribulin],Response activity,[1]; 1 mg/kg IP,High (A high level of activity is indicated by a score of 6 or more)
same,T/C volume activity,[1]; 1 mg/kg IP,High (High activity = T/C ≤0.15)
same,EFS T/C,[1]; [12],>4.2
same,Median final RTV (CD45%),[1]; [12],0.0
same,Tumor volume T/C,"[1]; 1 mg/kg IP, Day 21 or earlier",0.01
same,EFS activity,[2]; 1 mg/kg IP,"High (High activity requires: (a) an EFS T/C >2; (b) a significant difference in EFS distributions, and (c) a net reduction in median tumor volume for animals in the treated group at the end of treatment as compared to at treatment initiation)"
same,Response activity,[2]; 1 mg/kg IP,High (A high level of activity is indicated by a score of 6 or more)
same,T/C volume activity,[2]; 1 mg/kg IP,High (High activity = T/C ≤0.15)
same,EFS T/C,[2]; [12],>6.3
same,Median final RTV (CD45%),[2]; [12],0.0
same,Tumor volume T/C,"[2]; 1 mg/kg IP, Day 21 or earlier",0.10
same,Response activity,[3]; 1 mg/kg IP,Int (intermediate activity by a score of ≥2 but <6)
same,T/C volume activity,[3]; 1 mg/kg IP,Int (Intermediate activity = T/C ≤0.45 but >0.15)
same,Median final RTV (CD45%),[3]; [12],1.3
same,Tumor volume T/C,"[3]; 1 mg/kg IP, Day 21 or earlier",0.42
same,EFS activity,[4]; 1 mg/kg IP,"High (High activity requires: (a) an EFS T/C >2; (b) a significant difference in EFS distributions, and (c) a net reduction in median tumor volume for animals in the treated group at the end of treatment as compared to at treatment initiation)"
same,Response activity,[4]; 1 mg/kg IP,High (A high level of activity is indicated by a score of 6 or more)
same,T/C volume activity,[4]; 1 mg/kg IP,Low (Low activity = T/C >0.45)
same,EFS T/C,[4]; [12],>3.5
same,Median final RTV (CD45%),[4]; [12],0.6
same,Tumor volume T/C,"[4]; 1 mg/kg IP, Day 21 or earlier",1.00
same,EFS activity,[5]; 1 mg/kg IP,"High (High activity requires: (a) an EFS T/C >2; (b) a significant difference in EFS distributions, and (c) a net reduction in median tumor volume for animals in the treated group at the end of treatment as compared to at treatment initiation)"
same,Response activity,[5]; 1 mg/kg IP,Int (intermediate activity by a score of ≥2 but <6)
same,T/C volume activity,[5]; 1 mg/kg IP,Low (Low activity = T/C >0.45)
same,EFS T/C,[5]; [12],>3.6
same,Median final RTV (CD45%),[5]; [12],0.5
same,Tumor volume T/C,"[5]; 1 mg/kg IP, Day 21 or earlier",1.00
same,EFS activity,[6]; 1 mg/kg IP,Low (Low activity = EFS T/C <2)
same,Response activity,[6]; 1 mg/kg IP,Low (low activity by a score of <2)
same,T/C volume activity,[6]; 1 mg/kg IP,Low (Low activity = T/C >0.45)
same,EFS T/C,[6]; [12],1.1
same,Median final RTV (CD45%),[6]; [12],>4
same,Time to event,[6]; [12],7.9
same,Tumor volume T/C,"[6]; 1 mg/kg IP, Day 21 or earlier",0.80
same,Response activity,[7]; 1 mg/kg IP,High (A high level of activity is indicated by a score of 6 or more)
same,T/C volume activity,[7]; 1 mg/kg IP,Low (Low activity = T/C >0.45)
same,EFS T/C,[7]; [12],>1.5
same,Median final RTV (CD45%),[7]; [12],0.4
same,Tumor volume T/C,"[7]; 1 mg/kg IP, Day 21 or earlier",0.64
same,EFS activity,[8]; 1 mg/kg IP,"High (High activity requires: (a) an EFS T/C >2; (b) a significant difference in EFS distributions, and (c) a net reduction in median tumor volume for animals in the treated group at the end of treatment as compared to at treatment initiation)"
same,Response activity,[8]; 1 mg/kg IP,Int (intermediate activity by a score of ≥2 but <6)
same,T/C volume activity,[8]; 1 mg/kg IP,Int (Intermediate activity = T/C ≤0.45 but >0.15)
same,EFS T/C,[8]; [12],>2.5
same,Median final RTV (CD45%),[8]; [12],0.8
same,Tumor volume T/C,"[8]; 1 mg/kg IP, Day 21 or earlier",0.21
same,EFS activity,[9]; 1.5 mg/kg IP,"High (High activity requires: (a) an EFS T/C >2; (b) a significant difference in EFS distributions, and (c) a net reduction in median tumor volume for animals in the treated group at the end of treatment as compared to at treatment initiation)"
same,Response activity,[9]; 1.5 mg/kg IP,High (A high level of activity is indicated by a score of 6 or more)
same,EFS T/C,[9]; [13],>2.8
same,Median final RTV (CD45%),"[9]; CD45%, 1.5 mg/kg IP",0.0%
same,EFS activity,[10]; 1.5 mg/kg IP,"High (High activity requires: (a) an EFS T/C >2; (b) a significant difference in EFS distributions, and (c) a net reduction in median tumor volume for animals in the treated group at the end of treatment as compared to at treatment initiation)"
same,Response activity,[10]; 1.5 mg/kg IP,High (A high level of activity is indicated by a score of 6 or more)
same,EFS T/C,[10]; [13],>4.3
same,Median final RTV (CD45%),"[10]; CD45%, 1.5 mg/kg IP",0.0%
same,EFS activity,[11]; 1.5 mg/kg IP,"High (High activity requires: (a) an EFS T/C >2; (b) a significant difference in EFS distributions, and (c) a net reduction in median tumor volume for animals in the treated group at the end of treatment as compared to at treatment initiation)"
same,Response activity,[11]; 1.5 mg/kg IP,High (A high level of activity is indicated by a score of 6 or more)
same,EFS T/C,[11]; [13],>4.7
same,Median final RTV (CD45%),"[11]; CD45%, 1.5 mg/kg IP",0.0%
